Assay results taken from US20090042906A1, “METHODS FOR TREATING CANCERS ASSOCIATED WITH CONSTITUTIVE EGFR SIGNALING” (Massachusetts Institute of Technology, priority 2007, published 2009).

Key:
[1] = system: U87H cells; assay: Cell viability assay (WST-1); format: cell-based, human; conditions: for cytotoxicity of combination treatment: 10 μM c-Met inhibitor plus 5 μM AG1478, P<0.001 (SU11274), P<0.0001 (PHA665752); for cell viability, combined dosing with AG1478: c-Met inhibitor dose-response plus constant 5 μM AG1478, 72 h; for cell viability, combination with cisplatin: increasing doses of inhibitor with constant 10 μg/ml cisplatin, versus cisplatin only control; for cell viability, single agent: single treatment, 72 h after 24-h serum starvation
[2] = system: human glioblastoma xenografts expressing EGFRvIII; conditions: co-treatment of cisplatin with AG1478; cited from earlier work
[3] = target: T1, c-Met receptor (Homo sapiens, UniProt P08581); assay: Immunoblotting of c-Met receptor phosphorylation after kinase inhibitor treatment of U87H cells; format: cell-based; conditions: 1 h inhibitor dose escalation after 24-h serum starvation, Western blot
T1 construct: the U87MG cell line which expresses low levels of c-Met; endogenous in cells; host or cells: U87MG-derived U87H cells (human glioblastoma)
T1 sequence (P08581 25-1390): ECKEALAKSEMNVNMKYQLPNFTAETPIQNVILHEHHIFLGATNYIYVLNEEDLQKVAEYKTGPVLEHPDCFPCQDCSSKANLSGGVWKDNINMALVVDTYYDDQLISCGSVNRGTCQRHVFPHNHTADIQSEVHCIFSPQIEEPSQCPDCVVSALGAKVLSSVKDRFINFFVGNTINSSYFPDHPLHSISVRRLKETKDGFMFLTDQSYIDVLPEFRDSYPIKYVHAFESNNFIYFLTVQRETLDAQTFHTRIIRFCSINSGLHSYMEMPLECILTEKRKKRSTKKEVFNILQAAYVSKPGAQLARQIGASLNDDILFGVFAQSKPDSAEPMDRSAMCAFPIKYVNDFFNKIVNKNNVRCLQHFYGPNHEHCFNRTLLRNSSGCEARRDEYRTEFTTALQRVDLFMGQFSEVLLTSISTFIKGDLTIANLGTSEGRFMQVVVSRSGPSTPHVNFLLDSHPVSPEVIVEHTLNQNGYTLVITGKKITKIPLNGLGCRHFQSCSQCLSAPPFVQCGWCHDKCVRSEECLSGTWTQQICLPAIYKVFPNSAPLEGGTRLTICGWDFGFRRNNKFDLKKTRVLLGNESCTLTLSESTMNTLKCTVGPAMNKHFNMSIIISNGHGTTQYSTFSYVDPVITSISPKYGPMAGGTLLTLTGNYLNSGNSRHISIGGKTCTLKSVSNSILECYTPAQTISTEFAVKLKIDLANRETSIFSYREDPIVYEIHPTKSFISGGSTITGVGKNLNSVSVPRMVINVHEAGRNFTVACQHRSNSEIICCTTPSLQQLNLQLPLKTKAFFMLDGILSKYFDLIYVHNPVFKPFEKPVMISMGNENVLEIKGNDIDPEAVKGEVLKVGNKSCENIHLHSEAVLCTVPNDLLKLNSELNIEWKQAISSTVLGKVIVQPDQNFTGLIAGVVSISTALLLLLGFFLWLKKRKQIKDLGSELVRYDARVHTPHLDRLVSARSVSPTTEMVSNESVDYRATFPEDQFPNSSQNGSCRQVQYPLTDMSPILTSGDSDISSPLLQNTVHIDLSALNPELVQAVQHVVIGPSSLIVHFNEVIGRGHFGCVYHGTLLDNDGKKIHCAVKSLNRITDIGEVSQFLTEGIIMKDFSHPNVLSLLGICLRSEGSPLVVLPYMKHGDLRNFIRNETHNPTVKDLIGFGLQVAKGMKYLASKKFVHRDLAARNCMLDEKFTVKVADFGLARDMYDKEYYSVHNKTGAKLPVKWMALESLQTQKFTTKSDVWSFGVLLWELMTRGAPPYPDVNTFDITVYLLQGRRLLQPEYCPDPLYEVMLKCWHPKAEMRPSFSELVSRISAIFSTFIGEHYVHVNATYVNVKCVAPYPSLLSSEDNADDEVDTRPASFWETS
Experimental: For whole-cell extracts, cells were lysed in lysis buffer (20 mmol/L Tris-HCl, 150 mmol/L NaCl, 1 mmol/L EDTA, 1% Triton X-100, 2.5 mmol/L sodium PPi, 1 mmol/ ? glycerophosphate) containing protease and phosphatase inhibitors after the indicated treatment. Protein samples were separated on either 7.5% or 10% SDS-polyacrylamide gels and transferred onto polyvinylidene difluoride membrane. Blots were developed with supersignal West Femto substrate (Pierce) after incubation with primary and secondary antibodies. […] Cells were then lysed as described above for either immunoblotting or mass spectrometric analysis.

[4] = target: T2, EGFRvIII receptor (Homo sapiens, UniProt P00533, DELINS30-297G); assay: Mass spectrometric phosphotyrosine analysis of SU11274 treated U87H cells (EGFRvIII sites); format: cell-based; conditions: mass spectrometry (data not shown)
T2 construct: expressed in transfected cells; host or cells: U87MG human glioblastoma cells (U87H population), retroviral transduction with pLERNL
Experimental: U87MG cells expressing titrated levels of EGFRvIII were maintained in DMEM medium supplemented with 10% FBS. 1.5 million cells per 10 cm plate were washed with PBS and incubated for 24 hours in serum-free media. Cells were lysed with 8 M urea supplemented with 1 mM sodium orthovanadate (Sigma-Aldrich). For each biological replicate, three 10 cm plates were pooled together. The samples were then further processed and labeled with the iTRAQ reagent as previously described (Zhang et al. (2005) Mol Cell Proteom 4:1240-1250). Peptide immunoprecipitation was performed as previously described (Zhang et al. (2005) Mol Cell Proteom 4:1240-1250), with the following exceptions: 10 μg of protein G Plus-agarose beads (Calbiochem) were incubated with 12 μg of anti-phosphotyrosine antibody (pTyr100 (Cell Signaling Technology) in 200 μl of IP buffer (100 mM Tris, 100 mM NaCl, 1% NP-40, pH 7.4) for 8 hr at 4° C. Immobilized metal affinity chromatography (IMAC) was performed as previously described to remove non-specific non-phosphorylated peptides and eluted phosphopeptides were analyzed by ESI LC-MS/MS on a QqT of (QSTAR XL Pro, Applied Biosystems) operated in IDA mode, as previously described (Zhang et al. (2005) Mol Cell Proteom 4:1240-1250).
MS/MS spectra were extracted and searched against human protein database (NCBI) using ProQuant (Applied Biosystems) as recommended by the manufacturer. […]

[5] = system: U87H cells; assay: Apoptosis assay (caspase 3/7 activity, Apo-ONE); format: cell-based, human
Experimental: 10,000 cells were seeded per well in a 96 well plate. […] After 24 hours of drug treatment, caspase 3/7 activity was measured using Apo-ONE Homogeneous Caspase-3/7 Assay (Promega), following the manufacturer's recommendations.

[6] = target: T1, c-Met receptor; assay: Mass spectrometric phosphotyrosine analysis of SU11274 treated U87H cells (c-Met); format: cell-based; conditions: mass spectrometry

Compound	cytotoxicity of combination treatment [1]	cell viability, combined dosing with AG1478 ([1]; WST-1)	sensitisation of xenografts to cisplatin [2]	cell viability, combination with cisplatin [1]	cell viability, single agent ([1]; WST-1)	c-Met receptor phosphorylation (Y1230/Y1234/Y1235) [3]	cell viability, cisplatin only ([1]; 10 μg/ml cisplatin over 72 h after 24-h serum starvation, WST-1)	EGFRvIII receptor tyrosine phosphorylation on multiple sites [4]	apoptosis (caspase 3/7 cleavage), combination treatment ([5]; 10 μM SU11274 plus 5 μM AG1478, 24 h after 24-h serum starvation, P<0.01)	cell death, combined dosing with AG1478 ([5]; SU11274 with constant 5 μM AG1478)	specificity for the kinase activity of the c-Met receptor [6]
Cc1[nH]c(/C=C2\C(=O)Nc3ccc(S(=O)(=O)Cc4c(Cl)cccc4Cl)cc32)c(C)c1C(=O)N1CCC[C@@H]1CN1CCCC1 [PHA665752]	significantly enhanced cytotoxicity	synergistically sensitize									
COc1cc2ncnc(Nc3cccc(Cl)c3)c2cc1OC [AG1478]			sensitized to cisplatin	similar	only decreased cell viability at very high inhibitor doses	concomitant decrease					
N.N.[Cl][Pt][Cl] [cisplatin]							resistant				
Cc1[nH]c(/C=C2\C(=O)Nc3ccc(S(=O)(=O)N(C)c4cccc(Cl)c4)cc32)c(C)c1C(=O)N1CCN(C)CC1 [SU11274]	significantly enhanced cytotoxicity	synergistic decrease in cell viability		dramatic decrease in cell viability	only decreased cell viability at very high inhibitor doses	dose dependent decrease		does not affect	significantly enhanced apoptosis	increase in cell death	exquisitely specific
